The CheMixHub drug solubility set

Experiment: xn = mol fraction of the nth substance listed, in the solute-free solvent

Cc1[nH]c(=O)c(C#N)cc1-c1ccncc1 + CN(C)C=O + O
solubility (g/100 g solution)
Details	278.15 K	283.15 K	288.15 K	293.15 K	298.15 K	303.15 K	308.15 K	313.15 K	318.15 K	323.15 K
x2 = 0.02666	0.00219	0.00258	0.00301	0.00349	0.00402	0.00455	0.00511	0.00573	0.0064	0.00714
x2 = 0.05806	0.00523	0.00608	0.00705	0.00812	0.00928	0.0104	0.0117	0.013	0.0144	0.016
x2 = 0.09556	0.00909	0.0105	0.0121	0.014	0.0159	0.0179	0.02	0.0222	0.0245	0.0271
x2 = 0.1412	0.0128	0.0148	0.0171	0.0197	0.0224	0.0253	0.0283	0.0314	0.0347	0.0384
x2 = 0.1978	0.0159	0.0184	0.0208	0.0242	0.028	0.0318	0.0357	0.0397	0.0439	0.0488
x2 = 0.27	0.0186	0.0214	0.0246	0.029	0.0328	0.0371	0.0419	0.047	0.0524	0.0585
x2 = 0.3652	0.0209	0.0244	0.028	0.0328	0.0376	0.043	0.0487	0.0547	0.0613	0.068
x2 = 0.4965	0.023	0.0268	0.0315	0.0364	0.0416	0.0476	0.0545	0.0615	0.0685	0.0771
x2 = 0.6893	0.0242	0.0285	0.033	0.0391	0.0448	0.0505	0.0577	0.0654	0.0732	0.0835
